Activity calls are given as the source filed them. No cut-off for these calls is given here.
What was measured:
Mus musculus [1] = experiment: Anti-psychotic activity in mouse assessed as amelioration of PCP-induced disruption of prepulse inhibition at 30 mg/kg, po; type: functional, organism-based; design: dose 30 mg/kg
Mus musculus [2] = experiment: Anxiolytic activity in orally dosed mouse dosed 30 mins before test by marble burying method; type: functional, organism-based
Rattus norvegicus [3] = experiment: Reduction in blood pressure in anaesthetized rat at 10 mg/kg, iv; type: functional, organism-based; design: dose 10 mg/kg
Rattus norvegicus [4] = experiment: Increase in heart rate in anaesthetized rat at 10 mg/kg, iv; type: functional, organism-based; design: dose 10 mg/kg
Rattus norvegicus [5] = experiment: Induction of c-Fos in rat nucleus accumbens core region at 30 mg/kg, ip; type: functional, organism-based; design: dose 30 mg/kg
[6] = target: T1, 5-hydroxytryptamine receptor 1A (Homo sapiens) (UniProt P08908); experiment: Agonist activity at human 5HT1A receptor (unknown origin) expressed in CHO cells by [35S]GTPgammaS binding assay relative to 5-HT; type: functional, cell-based
T1 sequence (whole entry): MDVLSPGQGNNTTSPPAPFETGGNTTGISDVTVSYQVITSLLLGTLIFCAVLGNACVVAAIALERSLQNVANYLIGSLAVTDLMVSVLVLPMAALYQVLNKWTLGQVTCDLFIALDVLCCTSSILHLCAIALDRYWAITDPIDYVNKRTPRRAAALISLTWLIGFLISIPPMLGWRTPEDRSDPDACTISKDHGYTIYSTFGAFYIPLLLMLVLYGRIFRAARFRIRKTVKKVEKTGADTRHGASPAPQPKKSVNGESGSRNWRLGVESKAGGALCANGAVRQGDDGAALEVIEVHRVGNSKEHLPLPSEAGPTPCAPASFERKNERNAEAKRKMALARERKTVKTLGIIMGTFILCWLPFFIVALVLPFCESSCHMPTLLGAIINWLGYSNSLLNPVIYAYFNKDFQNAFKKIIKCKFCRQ

Rattus norvegicus [7] = experiment: Induction of c-Fos in ip dosed rat nucleus accumbens; type: functional, organism-based
[8] = target: 5-hydroxytryptamine receptor 2A (Rattus norvegicus) (UniProt P14842); experiment: Antagonist activity at 5HT2A receptor in rat aortic rings assessed as reduction in 5-HT-induced contraction relative to control; conditions: concentration not given here
Chain of 5-hydroxytryptamine receptor 2A (Rattus norvegicus) (P14842 whole entry): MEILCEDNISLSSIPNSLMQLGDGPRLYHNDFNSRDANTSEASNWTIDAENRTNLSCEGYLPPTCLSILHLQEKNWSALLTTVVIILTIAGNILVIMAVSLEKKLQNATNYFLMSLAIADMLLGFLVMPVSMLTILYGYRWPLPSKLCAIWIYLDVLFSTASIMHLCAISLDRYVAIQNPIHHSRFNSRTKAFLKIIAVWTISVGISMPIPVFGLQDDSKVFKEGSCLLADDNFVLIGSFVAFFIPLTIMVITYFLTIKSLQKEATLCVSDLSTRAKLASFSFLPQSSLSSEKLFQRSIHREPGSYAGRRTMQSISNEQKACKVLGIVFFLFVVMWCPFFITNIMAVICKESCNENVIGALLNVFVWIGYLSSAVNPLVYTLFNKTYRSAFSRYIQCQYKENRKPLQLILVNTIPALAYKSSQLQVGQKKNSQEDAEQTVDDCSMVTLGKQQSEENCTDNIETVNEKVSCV

Rattus norvegicus [9] = experiment: Increase in dopamine release in Wistar rat nucleus accumbens at 10 mg/kg, sc measured during 0 to 90 mins administered as single dose by microdialysis method; type: functional, organism-based; design: dose 10 mg/kg
Mus musculus [10] = experiment: Increase in prepulse inhibition in mouse at 30 mg/kg, po dosed 30 mins before testing; type: functional, organism-based; design: dose 30 mg/kg
D(3) dopamine receptor [11] = target: T2, D(3) dopamine receptor (Homo sapiens, UniProt P35462); experiment: Antagonist activity at human dopamine D3 receptor expressed in CHO-K1 cells assessed as reduction in dopamine-induced response by [35S]GTPgammaS binding assay relative to control; type: functional, cell-based; conditions: concentration not given here
T2 sequence (P35462 whole entry): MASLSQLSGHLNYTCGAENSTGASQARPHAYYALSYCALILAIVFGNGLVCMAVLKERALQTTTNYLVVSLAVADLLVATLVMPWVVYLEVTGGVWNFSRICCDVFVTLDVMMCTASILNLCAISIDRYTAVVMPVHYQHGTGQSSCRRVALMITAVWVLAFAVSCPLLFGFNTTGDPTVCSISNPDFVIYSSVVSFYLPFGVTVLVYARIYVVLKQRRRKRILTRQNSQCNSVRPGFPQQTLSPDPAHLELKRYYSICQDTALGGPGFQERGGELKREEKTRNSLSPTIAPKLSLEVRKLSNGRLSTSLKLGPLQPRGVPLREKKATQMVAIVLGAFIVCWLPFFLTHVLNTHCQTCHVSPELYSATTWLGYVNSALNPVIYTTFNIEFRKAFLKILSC

Mus musculus [12] = experiment: Anti-psychotic activity in mouse assessed as amelioration of PCP-induced disruption of prepulse inhibition at 3 mg/kg, po; type: functional, organism-based; design: dose 3 mg/kg
Rattus norvegicus [13] = experiment: Induction of c-Fos in rat nucleus accumbens core region at 10 mg/kg, ip; type: functional, organism-based; design: dose 10 mg/kg
Rattus norvegicus [14] = experiment: Induction of c-Fos in rat nucleus accumbens shell region at 3 to 30 mg/kg, ip; type: functional, organism-based
[15] = target: T1, 5-hydroxytryptamine receptor 1A (Homo sapiens); experiment: Antagonist activity at human 5HT1A receptor (unknown origin) expressed in CHO cells reduction in 5-HT-induced response by [35S]GTPgammaS binding assay; type: functional, cell-based; conditions: concentration not given here
Rattus norvegicus [16] = experiment: Induction of c-Fos in rat dorsolateral striatum region at 30 mg/kg, ip; type: functional, organism-based; design: dose 30 mg/kg
Rattus norvegicus [17] = experiment: Increase in dopamine release in Wistar rat medial prefrontal cortex at 10 mg/kg, sc measured for 90 mins administered as single dose by microdialysis method; type: functional, organism-based; design: dose 10 mg/kg
D(3) dopamine receptor [18] = target: T2, D(3) dopamine receptor; experiment: Agonist activity at human dopamine D3 receptor expressed in CHO-K1 cells by [35S]GTPgammaS binding assay relative to dopamine; type: functional, cell-based
Mus musculus [19] = species: Mus musculus; experiment: animal or person; conditions: NMRI, sc, read-out: MED
Description: Antipsychotic-like activity in sc dosed NMRI mouse assessed as reduction in methamphetamine-induced locomotor activity dosed 15 to 30 mins before administration of methamphetamine measured for 60 mins

[20] = target: T3, 5-hydroxytryptamine receptor 2C (Homo sapiens, UniProt P28335)
T3 sequence (P28335 whole entry): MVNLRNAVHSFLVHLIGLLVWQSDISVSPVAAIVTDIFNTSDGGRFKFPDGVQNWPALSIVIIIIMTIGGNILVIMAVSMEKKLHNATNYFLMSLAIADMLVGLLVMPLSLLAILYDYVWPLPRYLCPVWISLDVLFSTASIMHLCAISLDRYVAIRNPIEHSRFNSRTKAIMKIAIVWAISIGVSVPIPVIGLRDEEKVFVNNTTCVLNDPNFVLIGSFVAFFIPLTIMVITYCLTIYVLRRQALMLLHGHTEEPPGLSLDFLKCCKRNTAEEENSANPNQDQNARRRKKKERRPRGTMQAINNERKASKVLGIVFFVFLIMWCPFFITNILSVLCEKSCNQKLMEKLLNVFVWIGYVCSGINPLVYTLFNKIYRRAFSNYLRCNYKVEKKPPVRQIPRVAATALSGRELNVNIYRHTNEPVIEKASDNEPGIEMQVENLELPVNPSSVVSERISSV
Description: Binding affinity to 5HT2C receptor (unknown origin)

Mus musculus [21] = experiment: Toxicity in NMRI mouse assessed as induction of sedation at 10 and 30 mg/kg, sc dosed 30 mins before test; type: organism-based; design: dose 30 mg/kg, route subcutaneous; conditions: in vivo, 0.5 h
[22] = target: T4, 5-hydroxytryptamine receptor 1A (Homo sapiens, UniProt P08908)
T4 sequence (P08908 whole entry): T1 sequence (whole entry)
Description: Binding affinity to 5HT1A receptor (unknown origin)

D(2) dopamine receptor = D(2) dopamine receptor (Homo sapiens, UniProt P14416)
Chain of D(2) dopamine receptor (P14416 whole entry): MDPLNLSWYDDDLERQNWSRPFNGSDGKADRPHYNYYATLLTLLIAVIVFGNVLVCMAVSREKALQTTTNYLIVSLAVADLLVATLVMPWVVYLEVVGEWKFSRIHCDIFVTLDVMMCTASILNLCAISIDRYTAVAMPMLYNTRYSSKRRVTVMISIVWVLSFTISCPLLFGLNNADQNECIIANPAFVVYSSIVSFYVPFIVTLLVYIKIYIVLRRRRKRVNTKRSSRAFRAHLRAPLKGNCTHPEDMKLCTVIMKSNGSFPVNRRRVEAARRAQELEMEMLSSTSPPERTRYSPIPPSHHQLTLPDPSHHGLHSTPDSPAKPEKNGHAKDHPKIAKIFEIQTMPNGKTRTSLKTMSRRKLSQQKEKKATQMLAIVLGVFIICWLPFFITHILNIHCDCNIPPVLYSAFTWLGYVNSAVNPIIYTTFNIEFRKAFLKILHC
Description: Binding affinity to dopamine D2 receptor (unknown origin)

Mus musculus [23] = experiment: Antipsychotic-like activity in sc dosed NMRI mouse assessed as reduction in MK801-induced locomotor activity dosed 15 to 30 mins before administration of MK801 measured for 60 mins; type: functional; conditions: read-out: MED
[24] = target: 5-hydroxytryptamine receptor 2A (Homo sapiens, UniProt P28223)
Chain of 5-hydroxytryptamine receptor 2A (P28223 whole entry): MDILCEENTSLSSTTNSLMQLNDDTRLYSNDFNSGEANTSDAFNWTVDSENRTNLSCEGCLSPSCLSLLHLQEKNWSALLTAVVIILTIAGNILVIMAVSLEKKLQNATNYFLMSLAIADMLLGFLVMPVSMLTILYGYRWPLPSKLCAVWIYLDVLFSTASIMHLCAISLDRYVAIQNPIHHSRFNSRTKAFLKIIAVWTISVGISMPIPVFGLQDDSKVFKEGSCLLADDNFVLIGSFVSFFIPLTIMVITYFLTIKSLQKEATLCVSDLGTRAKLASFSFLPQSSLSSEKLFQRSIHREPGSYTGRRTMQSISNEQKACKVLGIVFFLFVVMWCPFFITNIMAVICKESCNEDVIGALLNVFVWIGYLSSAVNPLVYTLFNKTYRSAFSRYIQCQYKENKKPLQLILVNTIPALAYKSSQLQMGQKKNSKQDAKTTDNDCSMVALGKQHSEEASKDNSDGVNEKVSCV
Description: Binding affinity to 5HT2A receptor (unknown origin)

Mus musculus [25] = species: Mus musculus; experiment: animal or person; conditions: NMRI, sc, read-out: MED; remark: listed apart in the source
Description: Antipsychotic-like activity in sc dosed NMRI mouse assessed as reduction in PCP-induced locomotor activity dosed 15 to 30 mins before administration of methamphetamine measured for 60 mins

Mus musculus [26] = species: Mus musculus; conditions: in vivo, sc, 0.5 h
Description: Effect on spontaneous exploratory locomotor activity in sc dosed NMRI mouse measured for 30 mins with activity counts each 5 mins

D(3) dopamine receptor [27] = target: T2, D(3) dopamine receptor
Description: Binding affinity to dopamine D3 receptor (unknown origin)

Heart [28] = experiment: Cardiotoxicity in Langendorff-perfused Sprague-Dawley rat heart assessed as atrioventricular conduction time at 10 uM (reference value: 41.98 +/- 2.55 ms); type: toxicity, tissue-based
Heart [29] = experiment: Cardiotoxicity in Langendorff-perfused Sprague-Dawley rat heart assessed as cycle length time at 0.01 uM (reference value: 203.61 +/- 9.17 ms); type: toxicity, tissue-based
Heart [30] = experiment: Cardiotoxicity in Langendorff-perfused Sprague-Dawley rat heart assessed as intraventricular conduction time at 0.1 uM (reference value: 12.33 +/- 0.29 ms); type: toxicity, tissue-based, Cardiac ventricle
Heart [31] = experiment: Cardiotoxicity in Langendorff-perfused Sprague-Dawley rat heart assessed as heart rate at 1 uM (reference value: 296.25 +/- 13.61 bpm); type: toxicity, tissue-based
Heart [32] = experiment: Cardiotoxicity in Langendorff-perfused Sprague-Dawley rat heart assessed as corrected time duration of ventricular depolarization and repolarization at 0.1 uM (reference value: 159.41 +/- 11.21 ms); type: toxicity, tissue-based
Heart [33] = experiment: Cardiotoxicity in Langendorff-perfused Sprague-Dawley rat heart assessed as atrioventricular conduction time at 1 uM (reference value: 41.98 +/- 2.55 ms); type: toxicity, tissue-based
Heart [34] = experiment: Cardiotoxicity in Langendorff-perfused Sprague-Dawley rat heart assessed as intraventricular conduction time at 0.01 uM (reference value: 12.33 +/- 0.29 ms); type: toxicity, tissue-based, Cardiac ventricle
Heart [35] = experiment: Cardiotoxicity in Langendorff-perfused Sprague-Dawley rat heart assessed as corrected time duration of ventricular depolarization and repolarization at 0.01 uM (reference value: 159.41 +/- 11.21 ms); type: toxicity, tissue-based
Heart [36] = experiment: Cardiotoxicity in Langendorff-perfused Sprague-Dawley rat heart assessed as time duration of ventricular depolarization and repolarization at 0.01 uM (reference value: 71.61 +/- 4.21 ms); type: toxicity, tissue-based
Heart [37] = experiment: Cardiotoxicity in Langendorff-perfused Sprague-Dawley rat heart assessed as corrected time duration of ventricular depolarization and repolarization at 10 uM (reference value: 159.41 +/- 11.21 ms); type: toxicity, tissue-based
Heart [38] = experiment: Cardiotoxicity in Langendorff-perfused Sprague-Dawley rat heart assessed as corrected time duration of ventricular depolarization and repolarization at 1 uM (reference value: 159.41 +/- 11.21 ms); type: toxicity, tissue-based
Heart [39] = experiment: Cardiotoxicity in Langendorff-perfused Sprague-Dawley rat heart assessed as intraventricular conduction time at 10 uM (reference value: 12.33 +/- 0.29 ms); type: toxicity, tissue-based, Cardiac ventricle
Heart [40] = experiment: Cardiotoxicity in Langendorff-perfused Sprague-Dawley rat heart assessed as cycle length time at 10 uM (reference value: 203.61 +/- 9.17 ms); type: toxicity, tissue-based
Heart [41] = experiment: Cardiotoxicity in Langendorff-perfused Sprague-Dawley rat heart assessed as time duration of ventricular depolarization and repolarization at 1 uM (reference value: 71.61 +/- 4.21 ms); type: toxicity, tissue-based
Heart [42] = experiment: Cardiotoxicity in Langendorff-perfused Sprague-Dawley rat heart assessed as cycle length time at 0.1 uM (reference value: 203.61 +/- 9.17 ms); type: toxicity, tissue-based
Heart [43] = experiment: Cardiotoxicity in Langendorff-perfused Sprague-Dawley rat heart assessed as heart rate at 0.01 uM (reference value: 296.25 +/- 13.61 bpm); type: toxicity, tissue-based
Heart [44] = experiment: Cardiotoxicity in Langendorff-perfused Sprague-Dawley rat heart assessed as heart rate at 10 uM (reference value: 296.25 +/- 13.61 bpm); type: toxicity, tissue-based
Heart [45] = experiment: Cardiotoxicity in Langendorff-perfused Sprague-Dawley rat heart assessed as time duration of ventricular depolarization and repolarization at 0.1 uM (reference value: 71.61 +/- 4.21 ms); type: toxicity, tissue-based
Heart [46] = experiment: Cardiotoxicity in Langendorff-perfused Sprague-Dawley rat heart assessed as intraventricular conduction time at 1 uM (reference value: 12.33 +/- 0.29 ms); type: toxicity, tissue-based, Cardiac ventricle
Heart [47] = experiment: Cardiotoxicity in Langendorff-perfused Sprague-Dawley rat heart assessed as atrioventricular conduction time at 0.1 uM (reference value: 41.98 +/- 2.55 ms); type: toxicity, tissue-based
Heart [48] = experiment: Cardiotoxicity in Langendorff-perfused Sprague-Dawley rat heart assessed as atrioventricular conduction time at 0.01 uM (reference value: 41.98 +/- 2.55 ms); type: toxicity, tissue-based
Heart [49] = experiment: Cardiotoxicity in Langendorff-perfused Sprague-Dawley rat heart assessed as heart rate at 0.1 uM (reference value: 296.25 +/- 13.61 bpm); type: toxicity, tissue-based
Heart [50] = experiment: Cardiotoxicity in Langendorff-perfused Sprague-Dawley rat heart assessed as time duration of ventricular depolarization and repolarization at 10 uM (reference value: 71.61 +/- 4.21 ms); type: toxicity, tissue-based
Heart [51] = experiment: Cardiotoxicity in Langendorff-perfused Sprague-Dawley rat heart assessed as cycle length time at 1 uM (reference value: 203.61 +/- 9.17 ms); type: toxicity, tissue-based

SMILES: O=C(NCCCCN1CCN(c2ccccc2)CC1)c1ccc2ncccc2c1
- Activity (Mus musculus [1]): inactive
- Activity (Mus musculus [2]): Dose-dependent effect
- Activity (Rattus norvegicus [3]): Active
- Activity (Rattus norvegicus [4]): Active
- Activity (Rattus norvegicus [5]): Active
- Activity [6]: 66%
- Activity (Rattus norvegicus [7]): Dose-dependent effect
- inhibition [8]: 94%
- Activity (Rattus norvegicus [9]): inactive
- Activity (Mus musculus [10]): Active
- inhibition (D(3) dopamine receptor [11]): 69%
- Activity (Mus musculus [12]): Active
- Activity (Rattus norvegicus [13]): inactive
- Activity (Rattus norvegicus [14]): Active
- inhibition [15]: 19%
- Activity (Rattus norvegicus [16]): Active
- Activity (Rattus norvegicus [17]): Active
- Activity (D(3) dopamine receptor [18]): 21%

SMILES: COc1cccc(N2CCN(CCCCNC(=O)c3cc4ccccc4cn3)CC2)c1
- minimal effective dose (Mus musculus [19]): ≤ 1 mg/kg
- Ki [20]: 190 nM
- Activity (Mus musculus [21]): Toxic
- Ki [22]: 7.9 nM
- Ki (D(2) dopamine receptor): > 1000 nM
- minimal effective dose (Mus musculus [23]): 10 mg/kg
- Ki [24]: 33 nM
- minimal effective dose (Mus musculus [25]): 10 mg/kg
- MED (Mus musculus [26]): 10 mg/kg
- Ki (D(3) dopamine receptor [27]): 9.4 nM

SMILES: Cl.O=C(NCCCCN1CCN(c2ccccc2)CC1)c1ccc2ncccc2c1
- Time (Heart [28]): 44.51 ms
- Time (Heart [29]): 199.43 ms
- Time (Heart [30]): 12.7 ms
- Activity (Heart [31]): 297.7 bpm
- Time (Heart [32]): 162.06 ms
- Time (Heart [33]): 41.51 ms
- Time (Heart [34]): 13.17 ms
- Time (Heart [35]): 158.61 ms
- Time (Heart [36]): 70.61 ms
- Time (Heart [37]): 159.76 ms
- Time (Heart [38]): 158.14 ms
- Time (Heart [39]): 14.24 ms
- Time (Heart [40]): 218.07 ms
- Time (Heart [41]): 71.03 ms
- Time (Heart [42]): 194.96 ms
- Activity (Heart [43]): 302.2 bpm
- Activity (Heart [44]): 280.67 bpm
- Time (Heart [45]): 71.4 ms
- Time (Heart [46]): 13.38 ms
- Time (Heart [47]): 42.32 ms
- Time (Heart [48]): 41.95 ms
- Activity (Heart [49]): 308.58 bpm
- Time (Heart [50]): 73.96 ms
- Time (Heart [51]): 204.53 ms

Source: ChEMBL document CHEMBL3351528, “Targeting dopamine D3 and serotonin 5-HT1A and 5-HT2A receptors for developing effective antipsychotics: synthesis, biological characterization, and behavioral studies” (J Med Chem, 2014)
